Results reported in patent publication US7183320B2, “Benzoylsulfonamides and sulfonylbenzamidines for use as antitumour agents” (Eli Lilly and Company, priority 2002, dated 2007).

What was measured:
Assay type in all cases: in vivo
HUMAN OVARIAN BG-1 = test: Early stage human ovarian BG-1 xenograft (Table IX); details: Balb/C SCID female mice
Text: (§1) Conventional Murine Tumor and Human Tumor Xenouraft Assays
(§2) Inhibition of tumors transplanted into mice is an accepted procedure for studying the efficacy of antitumor agents (Corbett, et al., In vivo Methods for Screening and Preclinical Testing; Use of rodent solid tumors for drug discovery., In: Anticancer Drug Development Guide: Preclinical Screening, Clinical Trials, and Approval, B. Teicher (ed), Humana Press Inc., Totowa, N.J., Chapter 5, pages 75–99 (1997); (Corbett, et al., Int., J. Parmacog., 33, Supplement, 102–122 (1995)). Murine tumors or human xenographs were implanted essentially as described by Corbett in In vivo Methods for Screening and Preclimical Testing; Use of rodent solid tumors for drug discovery. Briefly, the murine tumor or human xenograph was implanted subcutaneously using either 12-gauge trocar implants or counted number of cells. The location for the trocar insertion is midway between the axillary and inguinal region along the side of the mouse. The trocar is slipped approximately ¾ of an inch subcutaneously up toward the axilla before discharging the tumor fragment, and pinching the skin as the trocar is removed., Alternatively, human tumor cells prepared from a […] of donor tumors (5×10^6 cells) were implanted subcutaneously in a hind-leg of a male or female nude mouse (Charles River). Either a test compound in vehicle or vehicle alone was administered by intravenous bolus injection (iv), intraperitoneal injection (ip), or oral gavage (po). Each treatment group, as well as a group of untreated control animals, consisted of five animals per group in each experiment. Subcutaneous tumor response was monitored by tumor volume measurement performed twice each week over the course of the experiment (60–120 days). Body weights were taken as a general measure of toxicity. The subcutaneous tumor data were analyzed by determining the median tumor weight for each treatment group over the course of the experiment and calculating the tumor growth delay as the difference in days for the treatment versus the control tumors to reach a volume of either 500 or 1000 mm^3.
(§3) The compound of Example 110 was tested against a variety of murine and human tumors substantially as described supra. The parameters measured in each experiment are summarized in the following paragraphs. • Tumor Weight(mg)=(a×b^2)/2 where a=tumor length (mm) and b=tumor width (mm). • Tumor Growth Delay=T−C where T is the median time (days) required for the treatment group tumors to reach a predetermined size, and C is the median time (days) for the control group tumors to reach the same size. Tumor-free survivors are excluded from this calculation, and are tabulated separately (Tumor Free).
(§4) [formula] • where Tumor Growth Delay is as previously defined and Td is tumor volume doubling time (days), estimated from the best fit straight line from a log-linear growth plot of the control group of tumors in exponential growth (100–800 mg range) • % T/C mass—The treatment and control groups are measured when the control group tumors reach approximately 700 to 1200 mg in size (median group). The median tumor weight of each group is determined (including zeros). The T/C value in percent is an indication of antitumor effectiveness. A T/C≦42% is considered significant antitumor activity. A T/C<10% is considered to indicate highly significant antitumor activity. • Body Weight Loss Nadir—A body weight loss nadir (mean of group) of greater than 20% or drug deaths greater than 20% are considered to indicate an excessively toxic dosage in single course trials. • Activity Rating—the Activity Rating is derived from the Log Kill according to the following table: […]

[1] = system: VEGF-induced neoangiogenesis; test: Rat corneal micropocket assay, VEGF disks; details: 160 mg/kg orally by gavage once per day, days 1 through 10; Fisher 344 female rats
Method: Rat Corneal Micropocket Assay
Fisher 344 female rats (145–155 grams; Taconic, Inc., Germantown, N.Y.) were anesthesized with acepromazine (2.5 mg/kg, ip) 20 minutes prior to initiation of 2–3% isoflurane/oxygen inhalation. The body temperature was maintained with a circulating hot water pad. The surgery was performed using an ophthalmic operating microscope (OMS.75 Operating Microscope, TopCon Corporation, Japan). A scalpel blade (#15) was used to make a vertical half-thickness linear corneal incision just lateral to the center of the eye. […] A pocket was formed in the cornea using blunt dissection with corneal scissors (Roboz, Rockville, Md.). Nitrocellulose filters ([…], Millipore, Bedford, Mass.) were cut into small disks using a 20 gauge needle punch. The disks were soaked in 2 μl of human VEGF solution ([…]; R&D Systems) or human basic fibroblast growth factor (0.20 μg/μl; R&D Systems) for 10 minutes on ice. Using forceps, the disks impregnated with the angiogenic factor (VEGF or bFGF) were inserted into the corneal pocket so that the disk is firmly covered with corneal epithelium. […] The images were analyzed by converting the area of interest to high contrast black and white reversed image and counting the bright pixels as a determination of the vascular area. […]

[2] = system: HUMAN COLON ADENOCARCINOMA-HCT116; test: Early stage human colon adenocarcinoma HCT116 xenograft (Table IV); details: Balb/C SCID female mice
Text: as §1, §2, §3, §4

[3] = system: HUMAN SQUAMOUS CELL LUNG CARCINOMA MRI-H165; test: Early stage human squamous cell lung carcinoma MRI-H165 xenograft (Table XI); details: total dose 600 mg/kg: 100 mg/kg/injection IV on days 3–5 and 10–12; Balb/C SCID female mice
Text: as §1, §2, §3, §4

[4] = total dose 600 mg/kg: 100 mg/kg/injection IV on days 3–5 and 9–11
[5] = total dose 870 mg/kg: 145 mg/kg/injection IV on days 3–5 and 9–11
[6] = total dose 280 mg/kg: 70 mg/kg/injection IV on days 3, 4, 5, and 9
[7] = total dose 560 mg/kg: 140 mg/kg/injection IV on days 3, 4, 5, and 9

## O=C(NS(=O)(=O)c1ccccc1)c1ccc(Cl)cc1Cl [Example 110, N-[2,4-dichlorobenzoyl]phenylsulfonamide]
HUMAN OVARIAN BG-1; [4]
  % BODY WT LOSS AT NADIR: −3.0%
  % T/C MASS: 0%
  ACTIVITY RATING: ++++ (HIGHLY ACTIVE >2.8)
  DRUG DEATHS: 0/5
  GROWTH DELAY: 30 days
  LOG KILL: 3.6
  TUMOR FREE AT DAY 176: 0/5
HUMAN OVARIAN BG-1; [5]
  % BODY WT LOSS AT NADIR: −2.0%
  % T/C MASS: 0%
  ACTIVITY RATING: ++++ (HIGHLY ACTIVE >2.8)
  DRUG DEATHS: 0/5
  GROWTH DELAY: 30.5 days
  LOG KILL: 3.7
  TUMOR FREE AT DAY 176: 1/5
[1]
  inhibition of VEGF-induced neoangiogenesis: very effective inhibitor
[2]; [6]
  % BODY WT LOSS AT NADIR: 0%
  % T/C MASS: 0%
  ACTIVITY RATING: ++++ (HIGHLY ACTIVE >2.8)
  DRUG DEATHS: 0/5
  GROWTH DELAY: 28 days
  LOG KILL: 3.4
  TUMOR FREE AT DAY 115: 2/5
[2]; [7]
  % BODY WT LOSS AT NADIR: −4.0%
  % T/C MASS: 0%
  ACTIVITY RATING: ++++ (HIGHLY ACTIVE >2.8)
  DRUG DEATHS: 0/5
  GROWTH DELAY: 56 days
  LOG KILL: 6.7
  TUMOR FREE AT DAY 115: 2/5
[3]
  % BODY WT LOSS AT NADIR: −2.1% ^
  % T/C MASS: 0%
  ACTIVITY RATING: ++++ (HIGHLY ACTIVE >2.8)
  DRUG DEATHS: 0/5
  GROWTH DELAY: 31 days
  LOG KILL: 3.7
  TUMOR FREE AT DAY 55: 0/5
